Assay results: EPA's ToxValDB 9.5 (doi:10.2903/j.efsa.2018.5140)
Several values for one entry are separate records, joined by “and”; a condition that tells them apart may be missing. Equal entries are not always repeated.

Columns and labels:
Aphidius rhopalosiphi = assay: LR50; higher = less toxic; conditions: acute; mortality
Colinus virginianus = conditions: for LD50: acute, oral, mortality
Pimephales promelas = conditions: chronic/long-term; duration: 28 days
Apis mellifera = conditions: acute, mortality
Canidae = conditions: oral, Dog Other, hematological
Oncorhynchus mykiss = conditions: acute; duration: 96 hours; mortality
Folsomia candida = conditions: chronic/long-term; duration: 28 days; reproduction
Neomysis kadiakensis = conditions: chronic/long-term; duration: 28 days; reproduction

Which LR50 (Aphidius rhopalosiphi) does the source give for COC(=O)N(C(=O)N1CO[C@@]2(C(=O)OC)Cc3cc(Cl)ccc3C2=N1)c1ccc(OC(F)(F)F)cc1 [Indoxacarb] here?
Its LR50 is 5.1 g/ha.

And the LD50 (Rattus norvegicus; acute, oral, mortality)?
The LD50 was 146 mg/kg-day.

And the NOAEL (Rattus norvegicus; chronic)?
The NOAEL was 0.6 mg/kg-day.

What about the NOAEL (Rattus norvegicus; chronic, duration: 2 years, hematological) of the same molecule?
Its NOAEL is 1.04 mg/kg-day.

And the NOAEL (Rattus norvegicus; reproduction developmental, body weight)?
Its NOAEL is 0.5 mg/kg-day.

What about the NOAEL (Rattus norvegicus; subchronic, duration: 90 days, oral, hematological) of the same molecule?
The NOAEL was 0.68 mg/kg-day and 0.99 mg/kg-day.

What about the NOAEL (Rattus norvegicus; subchronic, oral, hematological) of the same molecule?
Its NOAEL is 0.76 mg/kg-day.

What about the LD50 (Colinus virginianus) of the same molecule?
Its LD50 is 73.5 mg/kg-day.

What about the NOAEL (Colinus virginianus; reproduction developmental) of the same molecule?
The NOAEL was 56.8 mg/kg-day.

What about the NOEC (Pimephales promelas) of the same molecule?
Its NOEC is 0.0675 mg/L.

What about the LD50 (Apis mellifera; dermal) of the same molecule?
The LD50 was 0.0682 µg/piece.

And the LD50 (Apis mellifera; oral, unspecified)?
Its LD50 is 0.232 µg/piece.

What about the LOAEL (Canidae; chronic, duration: 1 years) of the same molecule?
The LOAEL was 1.1 mg/kg-day.

What about the LOAEL (Canidae; subchronic, duration: 90 days) of the same molecule?
Its LOAEL is 1 mg/kg-day.

What about the LC50 (Oncorhynchus mykiss) of the same molecule?
Its LC50 is over 0.17 µg/mL.

And the NOEC (Folsomia candida)?
Its NOEC is 1 mg/kg.

And the NOEC (Neomysis kadiakensis)?
The NOEC was 0.0138 mg/L.

For COC(=O)[C@@]12Cc3cc(Cl)ccc3C1=NN(C(=O)Nc1ccc(OC(F)(F)F)cc1)CO2, which LC50 (Rattus norvegicus; acute, M, mortality) is on record?
The LC50 was 52 mg/kg.

And the LD50 (Rattus norvegicus; acute, oral, F, mortality)?
The LD50 was 39 mg/kg.

What about the LD50 (Colinus virginianus) of the same molecule?
The LD50 was 1750 mg/kg.
